# Entries after “also recorded” stand apart in the source; their conditions may differ. Where a name gives a salt, the structure may show the parent alone.
# Tests used:
# Type in all cases: physicochemical
# [1] = Storage stability of free base and salts (XRPD, IC, 1H NMR pre- and post-storage)
# [2] = Gravimetric Vapor Sorption (GVS)
# Protocol: Sorption isotherms were obtained using a SMS DVS Intrinsic moisture sorption analyzer, controlled by DVS Intrinsic Control software v1.0.0.30. The sample temperature was maintained at 25° C. by the instrument controls. The humidity was controlled by mixing streams of dry and wet nitrogen, with a total flow rate of 200 ml/min. The relative humidity was measured by a calibrated Rotronic probe (dynamic range of 1.0-100% RH), located near the sample. The weight change, (mass relaxation) of the sample as a function of % RH was constantly monitored by the microbalance (accuracy ±0.005 mg).
# Typically 5-20 mg of sample was placed in a tared mesh stainless steel basket under ambient conditions. The sample was loaded and unloaded at 40% RH and 25° C. (typical room conditions). A moisture sorption isotherm was performed as outlined below (4 scans giving 2 complete cycles). The standard isotherm was performed at 25° C. at 10% RH intervals over a 0-90% RH range. Data analysis was undertaken in Microsoft Excel using DVS Analysis Suite v6.0.0.7.
# The sample was recovered after completion of the isotherm and re-analysed by XRPD. 7.2. Dynamic Vapour Sorption (DVS)
# [3] = Thermodynamic aqueous solubility
# Protocol: Aqueous solubility was determined by suspending sufficient compound in water to give a maximum final concentration of ≧10 mg/ml of the parent free-form of the compound. The suspension was equilibrated at 25° C. for 24 hours then the pH was measured. The suspension was then filtered through a glass fiber C filter. The filtrate was then diluted by an appropriate factor e.g., 101. Quantitation was by HPLC with reference to a standard solution of approximately 0.25 mg/ml in DMSO. Different volumes of the standard, diluted and undiluted sample solutions were injected. The solubility was calculated using the peak areas determined by integration of the peak found at the same retention time as the principal peak in the standard injection.
# Analysis was performed on an Agilent HP1100 series system equipped with a diode array detector and using ChemStation software vB.02.01-SR1.
# [4] = Dynamic Vapour Sorption (DVS)
# Protocol: Approximately 10 mg of sample was placed into a mesh vapour sorption balance pan and loaded into a DVS-1 dynamic vapour sorption balance by Surface Measurement Systems. The sample was subjected to a ramping profile of 0-90%, 90-0% relative humidity (RH) at 10% increments for anhydrous samples and 30-90%, 90-0%, 0-90%, 90-0% for hydrated samples, maintaining the sample at each step until a stable weight had been achieved (99.5% step completion). The weight changes during the sorption/desorption cycles were plotted, allowing the hygroscopic nature of the sample to be determined.
# [5] = Aqueous solubility studies of bis-mesylate forms (slurry in deionised water, HPLC, XRPD); settings: about 24 hours; for polymorphic form after slurrying in deionised water (XRPD): ambient temperature
# Protocol: Purity and concentration analyses were carried out using the following method:
# • Pan Number 186003045 Column Temperature: 25° C. Autosampler Temperature: 5° C. Detection: 226 nm Mobile Phase A: 95:5:0.1% Water:Methanol:TFA Mobile Phase B: 95:5:0.1% Methanol:Water:TFA Gradient: See table below for conditions Flow Rate: 1.0 mL/minute Injection Volume: 10 μl Analysis Time: 36 minutes Re-equilibration Time: 4 minutes Data Collection time: 36 minutes Needle Wash: 100% Methanol
# Slurries of Form A, Form B, Form C, Form D, Form E and Form I were created in deionised water and shaken for about 24 hours at ambient temperature (about 22° C.). The resulting solutions were then analyzed by HPLC and the aqueous solubility was determined. The remaining solids were analyzed by XRPD to determine if any form changes had occurred during slurrying.
# [6] = Stability testing of bis-mesylate forms for 1 week (XRPD, HPLC purity)
# Protocol: Form A, Form B, Form C, Form D, Form E and Form I were exposed to environments of 40° C./75% RH, ambient light (about 22° C.) and elevated temperature (80° C.) for 1 week to determine the stability. The resulting solids were analyzed by XRPD to establish if any form changes had occurred and by HPLC to determine purity.
Compound,DVS (summary Table 21) [4],DVS desorption behaviour / hysteresis [4],polymorphic form after slurrying in deionised water (XRPD) [5],HPLC purity after stability test ([6]; 40° C./75% RH),polymorphic form after stability test (XRPD) ([6]; 40° C./75% RH),HPLC purity after stability test ([6]; 80° C.),polymorphic form after stability test (XRPD) ([6]; 80° C.),polymorphic form after stability test (XRPD) ([6]; ambient light (about 22° C.)),HPLC purity after stability test ([6]; ambient temperature),other results
"Nc1ncccc1-c1nc2ccc(-c3ccccc3)nc2n1-c1ccc(C2(N)CCC2)cc1 [Form 1, 3-(3-(4-(1-aminocyclobutyl)phenyl)-5-phenyl-3H-imidazo[4,5-b]pyridin-2-yl)pyridin-2-amine]",,,,,,,,,,"stability under storage ([1]; 25° C. and 0-96% RH, XRPD): stable; polymorphic form change on storage ([1]; 40° C. and 75% RH, one week, XRPD): transformed to Form 2; water uptake (GVS) ([2]; 0-90% RH): < 0.8 %, w/w; water absorption upon storage ([2]; FIG. 5 GVS isotherm): Minimal water absorption"
"Nc1ncccc1-c1nc2ccc(-c3ccccc3)nc2n1-c1ccc(C2(N)CCC2)cc1 [Compound A tris-HCl salt, 3-(3-(4-(1-aminocyclobutyl)phenyl)-5-phenyl-3H-imidazo[4,5-b]pyridin-2-yl)pyridin-2-amine]",,,,,,,,,,"change of salt under storage ([1]; stability study under storage, XRPD): partially transformed to bis-HCl salt and/or mono-HCl salt; solubility in water (qualitative) [3]: highly soluble in water"
"Nc1ncccc1-c1nc2ccc(-c3ccccc3)nc2n1-c1ccc(C2(N)CCC2)cc1 [Compound A free base, 3-(3-(4-(1-aminocyclobutyl)phenyl)-5-phenyl-3H-imidazo[4,5-b]pyridin-2-yl)pyridin-2-amine]",,,,,,,,,,solubility in water (qualitative) [3]: insoluble in water
"Nc1ncccc1-c1nc2ccc(-c3ccccc3)nc2n1-c1ccc(C2(N)CCC2)cc1 [Compound A HCl salt, 3-(3-(4-(1-aminocyclobutyl)phenyl)-5-phenyl-3H-imidazo[4,5-b]pyridin-2-yl)pyridin-2-amine]",,,,,,,,,,"HCl content by IC after storage ([1]; 40° C. and 75% RH, 7 days, 2.2 equi. HCl before storage): IC converted to 1.6 equi. HCl; solubility at 24 h ([3]; water, 25 °C, thermodynamic from solid, pH 1.2, max conc. 50 mg/ml): 8.3 mg/mL; GVS water uptake ([2]; partial run, from 40-90% RH): partial run: ~18 wt % water uptake"
"Nc1ncccc1-c1nc2ccc(-c3ccccc3)nc2n1-c1ccc(C2(N)CCC2)cc1 [Compound A mesylate salt, 3-(3-(4-(1-aminocyclobutyl)phenyl)-5-phenyl-3H-imidazo[4,5-b]pyridin-2-yl)pyridin-2-amine]",,,,,,,,,,"change after storage ([1]; 40° C. and 75% RH, 7 days, XRPD and 1H NMR): No change in XRPD or ^1H NMR; solubility at 5 min ([3]; water, 25 °C, thermodynamic from solid, in 5 min, pH 2.1): > 50 mg/mL; change in XRPD after GVS [2]: No change in XRPD after GVS"
"Nc1ncccc1-c1nc2ccc(-c3ccccc3)nc2n1-c1ccc(C2(N)CCC2)cc1 [Form I, 3-(3-(4-(1-aminocyclobutyl)phenyl)-5-phenyl-3H-imidazo[4,5-b]pyridin-2-yl)pyridin-2-amine]",Hydration occurs,gradual loss of water/dehydration below 50% RH,converted to Form E,about 99.8%,conversion to Form J,about 99.9%,remained unchanged,remained unchanged,about 99.6%,"polymorphic form after DVS analysis (XRPD) [4]: Form I post; DVS water uptake ([4]; sorption cycle, between 40% and 50% RH): about 10%"
"Nc1ncccc1-c1nc2ccc(-c3ccccc3)nc2n1-c1ccc(C2(N)CCC2)cc1 [Form E, 3-(3-(4-(1-aminocyclobutyl)phenyl)-5-phenyl-3H-imidazo[4,5-b]pyridin-2-yl)pyridin-2-amine]",Two hydration,dehydration occurred below 10% RH,remained unchanged; also recorded: Form E,about 99.8%,remained unchanged,about 99.8%,some differences were observed,remained unchanged,about 99.7%,"hygroscopicity (DVS) [4]: non-hygroscopic; polymorphic form after DVS analysis (XRPD) [4]: RH Form E post; DVS water uptake ([4]; second sorption cycle, below 20% RH): about 2.78%; DVS further water uptake ([4]; second sorption cycle, between 20% and 40% RH): 5.5%; solubility at 24 h ([5]; 22 °C, water, thermodynamic from solid, deionised water, ambient temperature (about 22° C.), read-out: aqueous solubility (HPLC concentration analysis)): ~347 mg/mL"
"Nc1ncccc1-c1nc2ccc(-c3ccccc3)nc2n1-c1ccc(C2(N)CCC2)cc1 [Form D, 3-(3-(4-(1-aminocyclobutyl)phenyl)-5-phenyl-3H-imidazo[4,5-b]pyridin-2-yl)pyridin-2-amine]",Hydration occurs,gradual loss of water and hence dehydration was observed as the relative humidity was decreased below 40% RH,converted to Form E,about 99.9%,converted to Form J,about 99.9%,Form I,remained unchanged,about 99.9%,"DVS water uptake ([4]; second sorption cycle, between 30% and 50% RH, after dehydration at 0% RH): about 12%"
